Values of other authors, collected in patent publication US20140004176A1, “DELIVERY OF TREATMENTS TRANSDERMALLY FOR FUNGAL INFECTIONS AND OTHER INDICATIONS” (Strategic Science & Techologies, priority 2010, published 2014).

**Q.** With `C[C@@H](c1ncncc1F)[C@](O)(Cn1cncn1)c1ccc(F)cc1F` [voriconazole] as the compound, how does the pKa read?
**A.** 1.76
